Results from ChEMBL document CHEMBL2046310, “Synthesis and biological evaluation of novel 4β-(1,3,4-oxadiazole-2-amino)-podophyllotoxin derivatives” (Bioorg Med Chem Lett, 2012).
pIC50: −log10 of the molar value. Activity calls are given as the source filed them. No cut-off for these calls is given here.

Key:
SH-SY5Y = test: Cytotoxicity against human SH-SY5Y cells after 72 hrs by MTT assay; format: functional, cell-based
L929 = test: Cytotoxicity against mouse L929 cells after 72 hrs by MTT assay; format: cell-based; settings: L929, 72 h
HepG2 [1] = settings: Homo sapiens
Description: (§1) Cytotoxicity against human HepG2 cells after 72 hrs by MTT assay

HepG2 [2] = test: Induction of apoptosis in human HepG2 cells assessed as early apoptotic cells at 0.5 uM after 48 hrs by annexinV/propidium iodide staining-based flow cytometric analysis (reference value: 0.47%); format: functional
HepG2 [3] = test: Induction of apoptosis in human HepG2 cells assessed as late apoptotic to necrotic cells at 2 uM after 48 hrs by annexinV/propidium iodide staining-based flow cytometric analysis (reference value: 1.61%); format: functional
DU-145 = test: Cytotoxicity against human DU145 cells after 72 hrs by MTT assay; format: functional, cell-based; settings: DU-145, 72 h
Vero = test: Cytotoxicity against african green monkey Vero cells after 72 hrs by MTT assay; format: cell-based; settings: Chlorocebus sabaeus
HeLa = test: cells; settings: Homo sapiens, 72 h
Description: Cytotoxicity against human HeLa cells after 72 hrs by MTT assay

HepG2 [4] = test: Induction of apoptosis in human HepG2 cells assessed as early apoptotic cells at 0.25 uM after 48 hrs by annexinV/propidium iodide staining-based flow cytometric analysis (reference value: 0.47%); format: functional
HepG2 [5] = test: Induction of apoptosis in human HepG2 cells assessed as early apoptotic cells at 1 uM after 48 hrs by annexinV/propidium iodide staining-based flow cytometric analysis (reference value: 0.47%); format: functional
SGC-7901 = test: Cytotoxicity against human SGC7901 cells after 72 hrs by MTT assay; format: functional, cell-based; settings: SGC-7901, 72 h
HepG2 [6] = test: Induction of apoptosis in human HepG2 cells assessed as early apoptotic cells at 2 uM after 48 hrs by annexinV/propidium iodide staining-based flow cytometric analysis (reference value: 0.47%); format: functional
HepG2 [7] = test: Induction of apoptosis in human HepG2 cells assessed as […] of nuclear fragment at 0.25 to 2 uM after 48 hrs by Hoechst staining-based microscopic analysis; format: functional, cell-based
HepG2 [8] = test: Cell cycle arrest in human HepG2 cells assessed as accumulation at subG1 after 48 hrs by propidium iodide staining-based flow cytometric analysis; format: functional
HepG2 [9] = test: Inhibition of DNA topoisomerase 2alpha protein expression in human HepG2 cells at 0.5 to 1 uM after 48 hrs by Western blot analysis; format: functional, cell-based
HepG2 [10] = test: cells; settings: Homo sapiens, HepG2, 72 h
Description: as §1

HepG2 [11] = test: Induction of apoptosis in human HepG2 cells assessed as appearance of apoptotic bodies at 0.25 to 2 uM after 48 hrs by Hoechst staining-based microscopic analysis; format: functional, cell-based
HepG2 [12] = test: Cytotoxicity against human HepG2 cells by MTT assay; format: functional, cell-based; settings: TDE = time-dependent effect
HepG2 [13] = test: Induction of apoptosis in human HepG2 cells assessed as late apoptotic to necrotic cells at 0.5 uM after 48 hrs by annexinV/propidium iodide staining-based flow cytometric analysis (reference value: 1.61%); format: functional
HepG2 [14] = test: Induction of apoptosis in human HepG2 cells assessed as late apoptotic to necrotic cells at 1 uM after 48 hrs by annexinV/propidium iodide staining-based flow cytometric analysis (reference value: 1.61%); format: functional
A549 = test: Cytotoxicity against human A549 cells after 72 hrs by MTT assay; format: functional, cell-based; settings: A549, 72 h
HepG2 [15] = test: Inhibition of DNA topoisomerase 2beta mRNA expression in human HepG2 cells at 0.5 to 8 uM after 6 hrs by RT-PCR analysis; format: functional, cell-based
HepG2 [16] = test: Induction of apoptosis in human HepG2 cells assessed as late apoptotic to necrotic cells at 0.25 uM after 48 hrs by annexinV/propidium iodide staining-based flow cytometric analysis (reference value: 1.61%); format: functional
HepG2 [17] = test: Cell cycle arrest in human HepG2 cells assessed as accumulation at S phase after 48 hrs by propidium iodide staining-based flow cytometric analysis; format: functional

Row | SMILES | pIC50 (SH-SY5Y) | pIC50 (L929) | pIC50 (DU-145) | pIC50 (Vero) | pIC50 (HeLa) | pIC50 (SGC-7901; read-out: IC50) | pIC50 (HepG2 [10]) | pIC50 (A549) | further results
1 | COc1cc([C@@H]2c3cc4c(cc3[C@@H](Nc3nnc(C)o3)[C@H]3COC(=O)[C@H]23)OCO4)cc(OC)c1OC | 4.83 | 4.71 | < 4.00 | 5.26 | 5.57 | 4.42 | 5.82 | < 4.00 | inhibition (HepG2 [1]): Dose-dependent effect; Activity (HepG2 [2]): 1.45%; Activity (HepG2 [3]): 30.27%; Activity (HepG2 [4]): 0.62%; Activity (HepG2 [5]): 8.03%; Activity (HepG2 [6]): 20.68%; Activity (HepG2 [7]): Active; Activity (HepG2 [8]): Dose-dependent effect; inhibition (HepG2 [9]): Active; Activity (HepG2 [11]): Active; inhibition (HepG2 [12]): tde; Activity (HepG2 [13]): 2.77%; Activity (HepG2 [14]): 9.51%; inhibition (HepG2 [15]): Active; Activity (HepG2 [16]): 1.31%; Activity (HepG2 [17]): Dose-dependent effect
2 | COc1cc([C@@H]2c3cc4c(cc3[C@@H](Nc3nnc(-c5ccc([N+](=O)[O-])cc5)o3)[C@H]3COC(=O)[C@H]23)OCO4)cc(OC)c1OC | 4.78 | < 4.00 | < 4.00 |  | < 4.00 | < 4.00 | < 4.00 |  | 
3 | COc1cc([C@@H]2c3cc4c(cc3[C@@H](Nc3nnc(-c5ccco5)o3)[C@H]3COC(=O)[C@H]23)OCO4)cc(OC)c1OC | 4.53 | < 4.00 | 4.45 | < 4.00 | 4.23 |  | 4.41 | 4.16 | 
4 | COc1cc([C@@H]2c3cc4c(cc3[C@@H](Nc3nnc(-c5ccncc5)o3)[C@H]3COC(=O)[C@H]23)OCO4)cc(OC)c1OC | 4.38 | 4.69 | < 4.00 | < 4.00 | < 4.00 | < 4.00 | 4.02 | < 4.00 | 
5 | O=c1[nH]cc(F)c(=O)[nH]1 [FLUOROURACIL] | 5.96 | 5.86 | 4.91 | < 4.00 | 4.80 |  | 4.49 |  | pIC50 (SGC-7901): 4.84
6 | COc1cc([C@@H]2c3cc4c(cc3[C@@H](Nc3nnc(-c5cccnc5)o3)[C@H]3COC(=O)[C@H]23)OCO4)cc(OC)c1OC | 4.65 | 4.26 | < 4.00 | < 4.00 | < 4.00 | < 4.00 | 4.14 | < 4.00 | 
7 | COc1cc([C@@H]2c3cc4c(cc3[C@@H](Nc3nnc(C)o3)[C@H]3COC(=O)[C@H]23)OCO4)cc(OC)c1O | 5.34 | 5.32 | 4.22 | 4.34 | 4.73 | 5.01 | 4.75 | < 4.00 | 
8 | COc1cc([C@@H]2c3cc4c(cc3[C@@H](O[C@@H]3O[C@@H]5CO[C@@H](C)O[C@H]5[C@H](O)[C@H]3O)[C@H]3COC(=O)[C@H]23)OCO4)cc(OC)c1O [ETOPOSIDE] | 5.27 | 6.00 | 4.19 | 4.51 | 4.02 | 4.92 | 5.26 | 4.99 | 
9 | COc1cc([C@@H]2c3cc4c(cc3[C@@H](Nc3nnc(-c5ccccc5)o3)[C@H]3COC(=O)[C@H]23)OCO4)cc(OC)c1OC | 4.57 | < 4.00 | < 4.00 | < 4.00 | 4.07 | < 4.00 | 4.13 |  | 
10 | COc1cc([C@@H]2c3cc4c(cc3[C@@H](Nc3nnc(-c5cccs5)o3)[C@H]3COC(=O)[C@H]23)OCO4)cc(OC)c1OC | 4.70 | 4.15 | < 4.00 | < 4.00 | 4.37 | 4.25 | 4.41 | < 4.00 | 
11 | COc1ccc(-c2nnc(N[C@@H]3c4cc5c(cc4[C@@H](c4cc(OC)c(OC)c(OC)c4)[C@H]4C(=O)OC[C@@H]43)OCO5)o2)cc1 | 5.13 | 4.74 | 4.12 | 5.13 | 4.75 | < 4.00 | 4.55 | 4.27 | 
12 | COc1cc([C@@H]2c3cc4c(cc3[C@H](O)[C@H]3COC(=O)[C@H]23)OCO4)cc(OC)c1OC [PODOFILOX] | 5.60 | 5.86 | < 4.00 | 5.75 | 5.12 | 5.53 | 5.64 | 4.87 | 
13 | COc1cc([C@@H]2c3cc4c(cc3[C@@H](Nc3nnco3)[C@H]3COC(=O)[C@H]23)OCO4)cc(OC)c1OC | 4.59 | 4.36 | 4.95 | 4.81 | < 4.00 | < 4.00 | 4.93 | < 4.00 | 
